Test results reported in patent US8952024B2, “Herbicidal pyrimidone derivatives” (E I du Pont de Nemours and Company, priority 2009, dated 2015).

Tests used:
Type in all cases: in vivo
[1] = system: ducksalad (Heteranthera limosa); assay: Test B flooded paddy test; conditions: for Plant response rating, Flood, Ducksalad: 250 g ai/ha, flooded paddy test, visual rating on 0 to 100 scale (0 no effect, 100 complete control) after 13 to 15 days; for Plant response rating, Ducksalad: Flood (flooded paddy test), 13 to 15 days; for Ducksalad plant response rating: Flood, 31 g ai/ha, scale 0 to 100 (0 no effect, 100 complete control)
Summary of the method: (§1)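 Visual scores run from 0 (no effect) to 100 (complete control), assigned by comparison with controls 13 to 15 days after treatment. Test compounds went straight into water standing 3 cm above the soil, around plants at the 2-leaf stage kept in a greenhouse.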

[2] = system: barnyardgrass (Echinochloa crus-galli); assay: Test B flooded paddy test; conditions: for Plant response rating, Flood, Barnyardgrass: 250 g ai/ha, flooded paddy test, visual rating on 0 to 100 scale (0 no effect, 100 complete control) after 13 to 15 days; for Plant response rating, Barnyardgrass: Flood (flooded paddy test), 13 to 15 days; for Barnyardgrass plant response rating: Flood, 31 g ai/ha, scale 0 to 100 (0 no effect, 100 complete control)
Summary of the method: as §1

[3] = system: umbrella sedge (Cyperus difformis); assay: Test B flooded paddy test; conditions: for Plant response rating, Flood, Sedge, Umbrella: 250 g ai/ha, flooded paddy test, visual rating on 0 to 100 scale (0 no effect, 100 complete control) after 13 to 15 days; for Plant response rating, Sedge, Umbrella: Flood (flooded paddy test), 13 to 15 days; for Sedge, Umbrella plant response rating: Flood, 31 g ai/ha, scale 0 to 100 (0 no effect, 100 complete control)
Summary of the method: as §1

rice (Oryza sativa) = assay: Test B flooded paddy test; conditions: for Plant response rating, Flood, Rice: 250 g ai/ha, flooded paddy test, visual rating on 0 to 100 scale (0 no effect, 100 complete control) after 13 to 15 days; for Plant response rating, Rice: Flood (flooded paddy test), 13 to 15 days; for Rice plant response rating: Flood, 31 g ai/ha, scale 0 to 100 (0 no effect, 100 complete control)
Summary of the method: as §1

[4] = system: wheat (Triticum aestivum); assay: Test A pre-/postemergence plant response
Summary of the method: (§2)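 Seeds planted in loam soil/sand blend; test chemicals in non-phytotoxic solvent mixture with surfactant applied as directed soil spray preemergence and, concurrently, postemergence to plants 2–10 cm tall at one- to two-leaf stage. Greenhouse ~10 days; visual injury vs untreated controls, 0 (no effect) to 100 (complete control).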

[5] = system: barnyardgrass (Echinochloa crus-galli); assay: Test A pre-/postemergence plant response; conditions: for Barnyardgrass plant response rating: visual injury, 0 to 100 scale (0 no effect, 100 complete control), approx. ten days
Summary of the method: as §2

[6] = system: pigweed (Amaranthus retroflexus); assay: Test A pre-/postemergence plant response
Summary of the method: as §2

[7] = system: giant foxtail (Setaria faberii); assay: Test A pre-/postemergence plant response
Summary of the method: as §2

[8] = system: velvetleaf (Abutilon theophrasti); assay: Test A pre-/postemergence plant response
Summary of the method: as §2

[9] = system: large crabgrass (Digitaria sanguinalis); assay: Test A pre-/postemergence plant response; conditions: for Crabgrass, Large plant response rating: visual injury, 0 to 100 scale (0 no effect, 100 complete control), approx. ten days
Summary of the method: as §2

[10] = system: morningglory (Ipomoea spp.); assay: Test A pre-/postemergence plant response
Summary of the method: as §2

corn (Zea mays) = assay: Test A pre-/postemergence plant response; conditions: for Corn plant response rating: visual injury, 0 to 100 scale (0 no effect, 100 complete control), approx. ten days
Summary of the method: as §2

[11] = 62 g ai/ha, scale of 0 to 100 where 0 is no effect and 100 is complete control
[12] = 125 g ai/ha, scale 0 to 100, 0 is no effect, 100 is complete control
[13] = Postemergence, 125 g ai/ha, 0 to 100 scale where 0 is no effect and 100 is complete control
[14] = Postemergence, 500 g ai/ha, visual injury, 0 to 100 scale (0 no effect, 100 complete control), approx. ten days
[15] = Preemergence, 125 g ai/ha, 0 to 100 scale, 0 = no effect, 100 = complete control
[16] = Preemergence, 500 g ai/ha, 0 to 100 scale, 0 = no effect, 100 = complete control
[17] = Postemergence, 125 g ai/ha, visual injury, 0 to 100 scale (0 no effect, 100 complete control), approx. ten days
[18] = Preemergence, 125 g ai/ha, 0 to 100 scale where 0 is no effect and 100 is complete control, approximately ten days

CCCn1c(-c2ccco2)ncc(C(=O)C2=C(O)C3CCC(C3)C2=O)c1=O (stereo not drawn) [Compound 230]
Plant response rating, Flood, Ducksalad [1]: 0
Plant response rating, Ducksalad [1, 11]: 0
Plant response rating, Ducksalad [1, 12]: 0
Ducksalad plant response rating [1]: 0
Plant response rating, Flood, Barnyardgrass [2]: 40
Plant response rating, Barnyardgrass [2, 11]: 0
Plant response rating, Barnyardgrass [2, 12]: 20
Barnyardgrass plant response rating [2]: 0
Plant response rating, Flood, Sedge, Umbrella [3]: 75
Plant response rating, Sedge, Umbrella [3, 11]: 30
Plant response rating, Sedge, Umbrella [3, 12]: 40
Sedge, Umbrella plant response rating [3]: 0
Plant response rating, Flood, Rice (rice (Oryza sativa)): 45
Plant response rating, Rice (rice (Oryza sativa); [11]): 20
Plant response rating, Rice (rice (Oryza sativa); [12]): 30
Rice plant response rating (rice (Oryza sativa)): 0
Plant response rating, Wheat [4, 13]: 0
Wheat plant response rating [4, 14]: 0
Plant response rating, Wheat [4, 15]: 0
Plant response rating, Wheat [4, 16]: 0
Plant response rating, Barnyardgrass [5, 13]: 70
Barnyardgrass plant response rating ([5]; Postemergence, 500 g ai/ha): 90
Plant response rating, Barnyardgrass [5, 15]: 10
Plant response rating, Barnyardgrass [5, 16]: 80
Plant response rating, Pigweed [6, 13]: 80
Pigweed plant response rating [6, 14]: 90
Plant response rating, Pigweed [6, 16]: 80
Plant response rating, Foxtail, Giant [7, 13]: 30
Foxtail, Giant plant response rating [7, 14]: 50
Plant response rating, Foxtail, Giant [7, 15]: 40
Plant response rating, Foxtail, Giant [7, 16]: 50
Plant response rating, Velvetleaf [8, 13]: 100
Velvetleaf plant response rating [8, 14]: 100
Plant response rating, Velvetleaf [8, 15]: 60
Plant response rating, Velvetleaf [8, 16]: 80
Plant response rating, Crabgrass, Large [9, 13]: 80
Crabgrass, Large plant response rating ([9]; Postemergence, 500 g ai/ha): 90
Plant response rating, Crabgrass, Large [9, 15]: 30
Plant response rating, Crabgrass, Large [9, 16]: 90
Plant response rating, Morningglory [10, 13]: 70
Morningglory plant response rating [10, 14]: 90
Plant response rating, Morningglory [10, 15]: 0
Plant response rating, Morningglory [10, 16]: 20
Plant response rating, Corn (corn (Zea mays); [13]): 0
Corn plant response rating (corn (Zea mays); Postemergence, 500 g ai/ha): 20
Plant response rating, Corn (corn (Zea mays); [15]): 0
Plant response rating, Corn (corn (Zea mays); [16]): 0

CCCCn1c(-c2cccc(C)c2)ncc(C(=O)C2=C(O)C3CCC(C3)C2=O)c1=O (stereo not drawn) [Compound 232]
Plant response rating, Flood, Ducksalad [1]: 85
Plant response rating, Ducksalad [1, 11]: 85
Plant response rating, Flood, Barnyardgrass [2]: 50
Plant response rating, Barnyardgrass [2, 11]: 30
Plant response rating, Flood, Sedge, Umbrella [3]: 80
Plant response rating, Sedge, Umbrella [3, 11]: 80
Plant response rating, Flood, Rice (rice (Oryza sativa)): 0
Plant response rating, Rice (rice (Oryza sativa); [11]): 0
Plant response rating, Wheat [4, 13]: 20
Wheat plant response rating [4, 14]: 50
Plant response rating, Wheat [4, 15]: 0
Plant response rating, Wheat [4, 16]: 30
Plant response rating, Barnyardgrass [5, 13]: 60
Barnyardgrass plant response rating ([5]; Postemergence, 500 g ai/ha): 90
Plant response rating, Barnyardgrass [5, 15]: 0
Plant response rating, Barnyardgrass [5, 16]: 50
Plant response rating, Pigweed [6, 13]: 70
Pigweed plant response rating [6, 14]: 90
Plant response rating, Pigweed [6, 15]: 0
Plant response rating, Pigweed [6, 16]: 90
Plant response rating, Foxtail, Giant [7, 13]: 60
Foxtail, Giant plant response rating [7, 14]: 90
Plant response rating, Foxtail, Giant [7, 15]: 0
Plant response rating, Foxtail, Giant [7, 16]: 70
Plant response rating, Velvetleaf [8, 13]: 70
Velvetleaf plant response rating [8, 14]: 80
Plant response rating, Velvetleaf [8, 15]: 0
Plant response rating, Velvetleaf [8, 16]: 60
Plant response rating, Crabgrass, Large [9, 13]: 20
Crabgrass, Large plant response rating ([9]; Postemergence, 500 g ai/ha): 60
Plant response rating, Crabgrass, Large [9, 15]: 10
Plant response rating, Crabgrass, Large [9, 16]: 40
Plant response rating, Morningglory [10, 13]: 100
Morningglory plant response rating [10, 14]: 100
Plant response rating, Morningglory [10, 15]: 0
Plant response rating, Morningglory [10, 16]: 40
Plant response rating, Corn (corn (Zea mays); [13]): 10
Corn plant response rating (corn (Zea mays); Postemergence, 500 g ai/ha): 60
Plant response rating, Corn (corn (Zea mays); [15]): 0
Plant response rating, Corn (corn (Zea mays); [16]): 0

Cc1c(F)cccc1-n1c(-c2ccccc2)ncc(C(=O)C2=C(O)C3CCC(C3)C2=O)c1=O (stereo not drawn) [Compound 234]
Plant response rating, Flood, Ducksalad [1]: 70
Plant response rating, Ducksalad [1, 11]: 20
Plant response rating, Flood, Barnyardgrass [2]: 0
Plant response rating, Barnyardgrass [2, 11]: 0
Plant response rating, Flood, Sedge, Umbrella [3]: 40
Plant response rating, Sedge, Umbrella [3, 11]: 0
Plant response rating, Flood, Rice (rice (Oryza sativa)): 0
Plant response rating, Rice (rice (Oryza sativa); [11]): 0
Plant response rating, Wheat [4, 13]: 0
Wheat plant response rating [4, 14]: 20
Plant response rating, Wheat [4, 15]: 0
Plant response rating, Wheat [4, 16]: 20
Plant response rating, Barnyardgrass [5, 13]: 80
Barnyardgrass plant response rating ([5]; Postemergence, 500 g ai/ha): 100
Plant response rating, Barnyardgrass [5, 15]: 0
Plant response rating, Barnyardgrass [5, 16]: 80
Plant response rating, Pigweed [6, 13]: 70
Pigweed plant response rating [6, 14]: 90
Plant response rating, Pigweed [6, 15]: 50
Plant response rating, Pigweed [6, 16]: 60
Plant response rating, Foxtail, Giant [7, 13]: 70
Foxtail, Giant plant response rating [7, 14]: 90
Plant response rating, Foxtail, Giant [7, 15]: 10
Plant response rating, Foxtail, Giant [7, 16]: 60
Plant response rating, Velvetleaf [8, 13]: 100
Velvetleaf plant response rating [8, 14]: 100
Plant response rating, Velvetleaf [8, 15]: 30
Plant response rating, Velvetleaf [8, 16]: 90
Plant response rating, Crabgrass, Large [9, 13]: 40
Crabgrass, Large plant response rating ([9]; Postemergence, 500 g ai/ha): 90
Plant response rating, Crabgrass, Large [9, 15]: 60
Plant response rating, Crabgrass, Large [9, 16]: 90
Plant response rating, Morningglory [10, 13]: 100
Morningglory plant response rating [10, 14]: 100
Plant response rating, Morningglory [10, 16]: 10
Plant response rating, Corn (corn (Zea mays); [13]): 20
Corn plant response rating (corn (Zea mays); Postemergence, 500 g ai/ha): 50
Plant response rating, Corn (corn (Zea mays); [15]): 0
Plant response rating, Corn (corn (Zea mays); [16]): 20

O=C(C1=C(O)C2CCC(C2)C1=O)c1cnc(-c2cc(F)cc(F)c2)n(-c2ccccc2)c1=O (stereo not drawn) [Compound 246]
Plant response rating, Flood, Ducksalad [1]: 100
Plant response rating, Ducksalad [1, 11]: 100
Plant response rating, Ducksalad [1, 12]: 100
Ducksalad plant response rating [1]: 85
Plant response rating, Flood, Barnyardgrass [2]: 60
Plant response rating, Barnyardgrass [2, 11]: 0
Plant response rating, Barnyardgrass [2, 12]: 20
Barnyardgrass plant response rating [2]: 0
Plant response rating, Flood, Sedge, Umbrella [3]: 100
Plant response rating, Sedge, Umbrella [3, 11]: 85
Plant response rating, Sedge, Umbrella [3, 12]: 100
Sedge, Umbrella plant response rating [3]: 0
Plant response rating, Flood, Rice (rice (Oryza sativa)): 65
Plant response rating, Rice (rice (Oryza sativa); [11]): 30
Plant response rating, Rice (rice (Oryza sativa); [12]): 65
Rice plant response rating (rice (Oryza sativa)): 0
Plant response rating, Wheat [4, 17]: 0
Wheat plant response rating [4, 14]: 50
Plant response rating, Wheat [4, 18]: 0
Plant response rating, Wheat [4, 16]: 50
Plant response rating, Barnyardgrass [5, 13]: 70
Barnyardgrass plant response rating ([5]; Postemergence, 500 g ai/ha): 100
Plant response rating, Barnyardgrass [5, 18]: 10
Plant response rating, Barnyardgrass [5, 16]: 100
Plant response rating, Pigweed [6, 17]: 90
Pigweed plant response rating [6, 14]: 100
Plant response rating, Pigweed [6, 18]: 100
Plant response rating, Pigweed [6, 16]: 100
Plant response rating, Foxtail, Giant [7, 17]: 80
Foxtail, Giant plant response rating [7, 14]: 100
Plant response rating, Foxtail, Giant [7, 18]: 90
Plant response rating, Foxtail, Giant [7, 16]: 90
Plant response rating, Velvetleaf [8, 17]: 100
Velvetleaf plant response rating [8, 14]: 100
Plant response rating, Velvetleaf [8, 18]: 90
Plant response rating, Velvetleaf [8, 16]: 100
Plant response rating, Crabgrass, Large [9, 13]: 70
Crabgrass, Large plant response rating ([9]; Postemergence, 500 g ai/ha): 100
Plant response rating, Crabgrass, Large [9, 18]: 100
Plant response rating, Crabgrass, Large [9, 16]: 100
Plant response rating, Morningglory [10, 17]: 90
Morningglory plant response rating [10, 14]: 100
Plant response rating, Morningglory [10, 18]: 20
Plant response rating, Morningglory [10, 16]: 60
Plant response rating, Corn (corn (Zea mays); [13]): 0
Corn plant response rating (corn (Zea mays); Postemergence, 500 g ai/ha): 90
Plant response rating, Corn (corn (Zea mays); [18]): 0
Plant response rating, Corn (corn (Zea mays); [16]): 50
